The numbers were not newly measured in patent publication US9161911B2, “Gastric retentive pharmaceutical compositions for treatment and prevention of CNS disorders” (priority 2008, dated 2015), which cites them from elsewhere.

For `C[C@@](Cc1ccc(O)c(O)c1)(NN)C(=O)O.O` [Carbidopa, (−)-L-alpha-hydrazino-alpha-methyl-beta-(3,4-dihydroxybenzene) propanoic acid monohydrate], the “solubility in aqueous media” value was “poorly soluble” and the solubility in water entry is given as “slightly soluble (aqueous solubility (measured at 20° C.) in the range of 2% to 10% by weight)”.

For the molecule `NC(Cc1ccc(O)c(O)c1)C(=O)O` (single isomer, unassigned; (-)) [Levodopa, (−)-L-alpha-amino-beta-(3,4-dihydroxybenzene) propanoic acid], the “solubility in aqueous media” value is recorded as “poorly soluble” and the solubility in water result is “slightly soluble (aqueous solubility (measured at 20° C.) in the range of 2% to 10% by weight)”.
